Results reported in ChEMBL document CHEMBL1201862, “PubChem BioAssay data set” (2004).
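These data come from cells grown in 96-well plates and exposed to compound for 48 hours at five concentrations. GI50 = concentration required for 50% inhibition of growth.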 Active and inactive are the calls of the source. Cut-off read from the data, not from the text of the source: active = GI50 up to about 1.1 µM and inactive = higher.

Key:
Assay in all cases: NCI-60 cell line screen, 48 h
[1] = system: NCI-H226
[2] = system: K562
[3] = system: NCI/ADR-RES
[4] = system: OVCAR-4
[5] = system: MDA-MB-231
[6] = system: ACHN
[7] = system: NCI-H23
[8] = system: MCF7
[9] = system: UO-31
[10] = system: PC-3
[11] = system: BT-549
[12] = system: OVCAR-5
[13] = system: Malme-3M
[14] = system: HCT-116
[15] = system: T47D
[16] = system: M14
[17] = system: SF-539
[18] = system: MDA-MB-435
[19] = system: SF-268
[20] = system: MDA-N
[21] = system: UACC-257
[22] = system: SW-620
[23] = system: EKVX
[24] = system: A498
[25] = system: CAKI-1
[26] = system: SK-MEL-28
[27] = system: CCRF-CEM
[28] = system: MOLT-4
[29] = system: HOP-92
[30] = system: OVCAR-8
[31] = system: NCI-H522
[32] = system: DU-145
[33] = system: LOX IMVI
[34] = system: NCI-H460
[35] = system: HCC 2998
[36] = system: RXF 393
[37] = system: SF-295
[38] = system: SR
[39] = system: IGROV-1
[40] = system: HCT-15
[41] = system: SK-OV-3
[42] = system: HL-60
[43] = system: UACC-62
[44] = system: RPMI-8226
[45] = system: TK-10
[46] = system: SK-MEL-5
[47] = system: SN12C
[48] = system: OVCAR-3
[49] = system: SNB-75
[50] = system: COLO 205
[51] = system: SNB-19
[52] = system: U-251
[53] = system: Hs-578T
[54] = system: KM12
[55] = system: SK-MEL-2
[56] = system: A549
[57] = system: 786-0
[58] = system: HT-29
[59] = system: HOP-62

NP(=O)(OCC1=CC(=O)c2ccccc2C1=O)N(CCBr)CCBr (stereo unspecified)
GI50 [1]: 6.58 µM (inactive) | GI50 [2]: 3.05 µM (inactive) | GI50 [3]: 8.49 µM (inactive) | GI50 [4]: 16.4 µM (inactive) | GI50 [5]: 11.4 µM (inactive) | GI50 [6]: 1.44 µM (inactive) | GI50 [7]: 3.03 µM (inactive) | GI50 [8]: 2.07 µM (inactive) | GI50 [9]: 11.2 µM (inactive) | GI50 [10]: 10.9 µM (inactive) | GI50 [11]: 2.09 µM (inactive) | GI50 [12]: 22.3 µM (inactive) | GI50 [13]: 0.979 µM (active) | GI50 [14]: 9.55 µM (inactive) | GI50 [15]: 3.48 µM (inactive) | GI50 [16]: 2.01 µM (inactive) | GI50 [17]: 3.99 µM (inactive) | GI50 [18]: 2.14 µM (inactive) | GI50 [19]: 11.2 µM (inactive) | GI50 [20]: 1.65 µM (inactive) | GI50 [21]: 1.87 µM (inactive) | GI50 [22]: 2.32 µM (inactive) | GI50 [23]: 15.3 µM (inactive) | GI50 [24]: 20.8 µM (inactive) | GI50 [25]: 0.843 µM (active) | GI50 [26]: 4.23 µM (inactive) | GI50 [27]: 1.2 µM (inactive) | GI50 [28]: 0.634 µM (active) | GI50 [29]: 13.3 µM (inactive) | GI50 [30]: 12.1 µM (inactive) | GI50 [31]: 2.31 µM (inactive) | GI50 [32]: 5.04 µM (inactive) | GI50 [33]: 3.96 µM (inactive) | GI50 [34]: 1.79 µM (inactive) | GI50 [35]: 16 µM (inactive) | GI50 [36]: 7.4 µM (inactive) | GI50 [37]: 8.81 µM (inactive) | GI50 [38]: 0.399 µM (active) | GI50 [39]: 12.6 µM (inactive) | GI50 [40]: 5.13 µM | GI50 [41]: 14.3 µM (inactive) | GI50 [42]: 0.863 µM (active) | GI50 [43]: 2.24 µM (inactive) | GI50 [44]: 11.6 µM (inactive) | GI50 [45]: 17.2 µM (inactive) | GI50 [46]: 1.31 µM (inactive) | GI50 [47]: 10.6 µM (inactive) | GI50 [48]: 3.02 µM (inactive) | GI50 [49]: 7.26 µM (inactive) | GI50 [50]: 2.2 µM (inactive) | GI50 [51]: 18.3 µM (inactive) | GI50 [52]: 11.5 µM (inactive) | GI50 [53]: 31.5 µM (inactive) | GI50 [54]: 8.65 µM (inactive) | GI50 [55]: 4.26 µM (inactive) | GI50 [56]: 4.17 µM (inactive) | GI50 [57]: 5.82 µM (inactive) | GI50 [58]: 11.1 µM (inactive)

O=[N+]([O-])c1cc2c(c([N+](=O)[O-])c1)NCc1ccccc1O2
GI50 [1]: > 100 µM (inactive) | GI50 [2]: > 10 µM (inactive) | GI50 [3]: > 100 µM (inactive) | GI50 [4]: 70.5 µM (inactive) | GI50 [5]: > 100 µM (inactive) | GI50 [6]: > 100 µM (inactive) | GI50 [7]: > 100 µM (inactive) | GI50 [8]: > 100 µM (inactive) | GI50 [9]: > 100 µM (inactive) | GI50 [10]: > 100 µM (inactive) | GI50 [11]: > 100 µM (inactive) | GI50 [12]: > 100 µM (inactive) | GI50 [13]: > 100 µM (inactive) | GI50 [14]: > 100 µM (inactive) | GI50 [15]: > 100 µM (inactive) | GI50 [17]: 69.3 µM (inactive) | GI50 [18]: > 100 µM (inactive) | GI50 [19]: > 100 µM (inactive) | GI50 [20]: > 100 µM (inactive) | GI50 [21]: > 100 µM (inactive) | GI50 [22]: > 100 µM (inactive) | GI50 [23]: > 100 µM (inactive) | GI50 [24]: > 100 µM (inactive) | GI50 [25]: 14.9 µM (inactive) | GI50 [26]: > 100 µM (inactive) | GI50 [27]: 24.3 µM (inactive) | GI50 [28]: 59.2 µM (inactive) | GI50 [29]: > 100 µM (inactive) | GI50 [30]: 71.1 µM (inactive) | GI50 [31]: > 100 µM (inactive) | GI50 [32]: > 100 µM (inactive) | GI50 [33]: > 100 µM (inactive) | GI50 [34]: > 100 µM (inactive) | GI50 [35]: > 100 µM (inactive) | GI50 [36]: 16 µM (inactive) | GI50 [37]: > 100 µM (inactive) | GI50 [38]: 55.5 µM (inactive) | GI50 [39]: > 100 µM (inactive) | GI50 [40]: > 100 µM | GI50 [59]: 30.8 µM (inactive) | GI50 [42]: > 100 µM (inactive) | GI50 [43]: > 100 µM (inactive) | GI50 [44]: > 100 µM (inactive) | GI50 [45]: > 100 µM (inactive) | GI50 [46]: > 100 µM (inactive) | GI50 [47]: > 100 µM (inactive) | GI50 [48]: > 100 µM (inactive) | GI50 [49]: 12.9 µM (inactive) | GI50 [50]: > 100 µM (inactive) | GI50 [52]: 41.2 µM (inactive) | GI50 [53]: 70.8 µM (inactive) | GI50 [54]: > 100 µM (inactive) | GI50 [55]: 76.6 µM (inactive) | GI50 [56]: > 100 µM (inactive) | GI50 [57]: 43.4 µM (inactive) | GI50 [58]: > 100 µM (inactive)

OCCCCCNc1c2ccccc2nc2ccccc12
GI50 [2]: 2.37 µM (inactive) | GI50 [3]: 7.46 µM (inactive) | GI50 [4]: 2.31 µM (inactive) | GI50 [5]: 2.74 µM (inactive) | GI50 [6]: 0.818 µM (active) | GI50 [7]: 2.02 µM (inactive) | GI50 [8]: 2.33 µM (inactive) | GI50 [9]: 2.38 µM (inactive) | GI50 [10]: 1.98 µM (inactive) | GI50 [11]: 6.17 µM (inactive) | GI50 [12]: 2.51 µM (inactive) | GI50 [13]: 1.9 µM (inactive) | GI50 [14]: 1.45 µM (inactive) | GI50 [15]: 2.82 µM (inactive) | GI50 [16]: 2.74 µM (inactive) | GI50 [17]: 2.75 µM (inactive) | GI50 [18]: 2.68 µM (inactive) | GI50 [19]: 2.75 µM (inactive) | GI50 [20]: 2.54 µM (inactive) | GI50 [21]: 2.02 µM (inactive) | GI50 [22]: 2.55 µM (inactive) | GI50 [23]: 3.4 µM (inactive) | GI50 [24]: 3.73 µM (inactive) | GI50 [25]: 2.91 µM (inactive) | GI50 [26]: 3.85 µM (inactive) | GI50 [27]: 2.5 µM (inactive) | GI50 [28]: 2.4 µM (inactive) | GI50 [30]: 2.34 µM (inactive) | GI50 [31]: 2.04 µM (inactive) | GI50 [32]: 3.02 µM (inactive) | GI50 [33]: 1.89 µM (inactive) | GI50 [34]: 1.01 µM (active) | GI50 [35]: 1.01 µM (active) | GI50 [36]: 2.86 µM (inactive) | GI50 [37]: 2.75 µM (inactive) | GI50 [38]: 1.37 µM (inactive) | GI50 [39]: 3.03 µM (inactive) | GI50 [40]: 3.57 µM | GI50 [59]: 1.38 µM (inactive) | GI50 [41]: 3.05 µM (inactive) | GI50 [42]: 3.44 µM (inactive) | GI50 [43]: 1.8 µM (inactive) | GI50 [44]: 3.44 µM (inactive) | GI50 [45]: 3.6 µM (inactive) | GI50 [46]: 1.71 µM (inactive) | GI50 [47]: 2.54 µM (inactive) | GI50 [48]: 3.86 µM (inactive) | GI50 [49]: 5.52 µM (inactive) | GI50 [50]: 1.53 µM (inactive) | GI50 [51]: 3.03 µM (inactive) | GI50 [52]: 3.73 µM (inactive) | GI50 [53]: 3.18 µM (inactive) | GI50 [54]: 3.13 µM (inactive) | GI50 [55]: 2.62 µM (inactive) | GI50 [56]: 2.65 µM (inactive) | GI50 [57]: 2.34 µM (inactive) | GI50 [58]: 1.44 µM (inactive)
